Laboratory results: publication PMC10239507, “Development of allosteric and selective CDK2 inhibitors for contraception with negative cooperativity to cyclin binding” (Nature Communications, 2023)

Columns and labels:
Test in all cases: biochemical
[1] = biological target: T1, 371 kinases (kinase named in each endpoint) (Homo sapiens, UniProt O15146); conditions: MUSK
T1 construct: purchased Reaction Biology

[2] = biological target: T2, 371 kinases (kinase named in each endpoint) (Homo sapiens, UniProt O15264); conditions: P38D/MAPK13
T2 construct: purchased Reaction Biology

[3] = biological target: T3, 371 kinases (kinase named in each endpoint) (Homo sapiens, UniProt O43318); conditions: TAK1
T3 construct: purchased Reaction Biology

[4] = biological target: T4, 371 kinases (kinase named in each endpoint) (Homo sapiens, UniProt O75716); conditions: STK16
T4 construct: purchased Reaction Biology

[5] = biological target: T5, 371 kinases (kinase named in each endpoint) (Homo sapiens, UniProt O95382); conditions: MEKK6
T5 construct: purchased Reaction Biology

[6] = biological target: T6, 371 kinases (kinase named in each endpoint) (Homo sapiens, UniProt P04049); conditions: RAF1
T6 construct: purchased Reaction Biology

[7] = biological target: T7, 371 kinases (kinase named in each endpoint) (Homo sapiens, UniProt P21802); conditions: FGFR2
T7 construct: purchased Reaction Biology

[8] = biological target: T8, 371 kinases (kinase named in each endpoint) (Homo sapiens, UniProt P22455); conditions: FGFR4
T8 construct: purchased Reaction Biology

[9] = biological target: T9, 371 kinases (kinase named in each endpoint) (Homo sapiens, UniProt P22607); conditions: FGFR3
T9 construct: purchased Reaction Biology

[10] = biological target: T10, 371 kinases (kinase named in each endpoint) (Homo sapiens, UniProt P36888); conditions: FLT3
T10 construct: purchased Reaction Biology

[11] = biological target: T11, 371 kinases (kinase named in each endpoint) (Homo sapiens, UniProt P42680); conditions: TEC
T11 construct: purchased Reaction Biology

[12] = biological target: T12, 371 kinases (kinase named in each endpoint) (Homo sapiens, UniProt P42684); conditions: ABL2/ARG
T12 construct: purchased Reaction Biology

[13] = biological target: T13, 371 kinases (kinase named in each endpoint) (Homo sapiens, UniProt P49840); conditions: GSK3a
T13 construct: purchased Reaction Biology

[14] = biological target: T14, 371 kinases (kinase named in each endpoint) (Homo sapiens, UniProt P54760); conditions: EPHB4
T14 construct: purchased Reaction Biology

[15] = biological target: T15, 371 kinases (kinase named in each endpoint) (Homo sapiens, UniProt P54764); conditions: EPHA4
T15 construct: purchased Reaction Biology

[16] = biological target: T16, 371 kinases (kinase named in each endpoint) (Homo sapiens, UniProt Q08881); conditions: ITK
T16 construct: purchased Reaction Biology

[17] = biological target: T17, 371 kinases (kinase named in each endpoint) (Homo sapiens, UniProt Q13177); conditions: PAK2
T17 construct: purchased Reaction Biology

[18] = biological target: T18, 371 kinases (kinase named in each endpoint) (Homo sapiens, UniProt Q15139); conditions: PKCMU/PRKD1
T18 construct: purchased Reaction Biology

[19] = biological target: T19, 371 kinases (kinase named in each endpoint) (Homo sapiens, UniProt Q15418); conditions: RSK1
T19 construct: purchased Reaction Biology

[20] = biological target: T20, 371 kinases (kinase named in each endpoint) (Homo sapiens, UniProt Q15759); conditions: P38B/MAPK11
T20 construct: purchased Reaction Biology

[21] = biological target: T21, 371 kinases (kinase named in each endpoint) (Homo sapiens, UniProt Q16288); conditions: TRKC
T21 construct: purchased Reaction Biology

[22] = biological target: T22, 371 kinases (kinase named in each endpoint) (Homo sapiens, UniProt Q5TCY1); conditions: TTBK1
T22 construct: purchased Reaction Biology

[23] = biological target: T23, 371 kinases (kinase named in each endpoint) (Homo sapiens, UniProt Q6P2M8); conditions: CAMK1B
T23 construct: purchased Reaction Biology

[24] = biological target: T24, 371 kinases (kinase named in each endpoint) (Homo sapiens, UniProt Q8IW41); conditions: MAPKAPK5/PRAK
T24 construct: purchased Reaction Biology

[25] = biological target: T25, 371 kinases (kinase named in each endpoint) (Homo sapiens, UniProt Q8N4C8); conditions: MINK/MINK1
T25 construct: purchased Reaction Biology

[26] = biological target: T26, 371 kinases (kinase named in each endpoint) (Homo sapiens, UniProt Q8N752); conditions: CK1A1L
T26 construct: purchased Reaction Biology

[27] = biological target: T27, 371 kinases (kinase named in each endpoint) (Homo sapiens, UniProt Q96L34); conditions: MARK4
T27 construct: purchased Reaction Biology

[28] = biological target: T28, 371 kinases (kinase named in each endpoint) (Homo sapiens, UniProt Q9H422); conditions: HIPK3
T28 construct: purchased Reaction Biology

[29] = biological target: T29, 371 kinases (kinase named in each endpoint) (Homo sapiens, UniProt Q9NQU5); conditions: PAK6
T29 construct: purchased Reaction Biology

[30] = biological target: T30, 371 kinases (kinase named in each endpoint) (Homo sapiens, UniProt Q9NR20); conditions: DYRK4
T30 construct: purchased Reaction Biology

[31] = biological target: T31, 371 kinases (kinase named in each endpoint) (Homo sapiens, UniProt Q9P289); conditions: MST4
T31 construct: purchased Reaction Biology

[32] = biological target: T32, 371 kinases (kinase named in each endpoint) (Homo sapiens, UniProt Q9UIK4); conditions: DAPK2
T32 construct: purchased Reaction Biology

[33] = biological target: T33, 371 kinases (kinase named in each endpoint) (Homo sapiens, UniProt Q9UKE5); conditions: TNIK
T33 construct: purchased Reaction Biology

[34] = biological target: T34, 371 kinases (kinase named in each endpoint) (Homo sapiens, UniProt Q9UL54); conditions: TAOK2/TAO1
T34 construct: purchased Reaction Biology

[35] = biological target: T35, 371 kinases (kinase named in each endpoint) (Homo sapiens, UniProt Q9UPE1); conditions: MSSK1/STK23
T35 construct: purchased Reaction Biology

[36] = tested on: 371 kinases (kinase named in each endpoint); conditions: 10 µM

T8 sequence (P22455 22-802): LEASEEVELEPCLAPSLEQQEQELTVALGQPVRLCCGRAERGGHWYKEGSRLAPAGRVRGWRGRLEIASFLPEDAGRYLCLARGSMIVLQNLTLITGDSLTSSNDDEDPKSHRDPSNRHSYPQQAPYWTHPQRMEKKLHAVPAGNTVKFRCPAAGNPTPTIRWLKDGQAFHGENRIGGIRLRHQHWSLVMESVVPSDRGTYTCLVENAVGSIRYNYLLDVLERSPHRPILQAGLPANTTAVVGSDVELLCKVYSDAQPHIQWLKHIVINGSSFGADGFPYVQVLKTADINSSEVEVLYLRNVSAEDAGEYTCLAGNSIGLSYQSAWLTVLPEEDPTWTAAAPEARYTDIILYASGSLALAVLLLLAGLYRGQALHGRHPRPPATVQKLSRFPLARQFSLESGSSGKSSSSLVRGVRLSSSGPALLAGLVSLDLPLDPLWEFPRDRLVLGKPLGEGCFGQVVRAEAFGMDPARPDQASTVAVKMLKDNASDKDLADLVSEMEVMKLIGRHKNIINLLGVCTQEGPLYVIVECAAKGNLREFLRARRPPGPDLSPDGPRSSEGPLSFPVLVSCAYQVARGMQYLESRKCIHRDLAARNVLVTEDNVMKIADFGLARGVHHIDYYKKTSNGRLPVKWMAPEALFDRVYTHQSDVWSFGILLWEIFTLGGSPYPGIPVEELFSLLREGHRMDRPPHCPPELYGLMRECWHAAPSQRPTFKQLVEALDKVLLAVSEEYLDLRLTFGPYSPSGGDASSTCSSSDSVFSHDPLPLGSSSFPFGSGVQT
T32 sequence (Q9UIK4 whole entry): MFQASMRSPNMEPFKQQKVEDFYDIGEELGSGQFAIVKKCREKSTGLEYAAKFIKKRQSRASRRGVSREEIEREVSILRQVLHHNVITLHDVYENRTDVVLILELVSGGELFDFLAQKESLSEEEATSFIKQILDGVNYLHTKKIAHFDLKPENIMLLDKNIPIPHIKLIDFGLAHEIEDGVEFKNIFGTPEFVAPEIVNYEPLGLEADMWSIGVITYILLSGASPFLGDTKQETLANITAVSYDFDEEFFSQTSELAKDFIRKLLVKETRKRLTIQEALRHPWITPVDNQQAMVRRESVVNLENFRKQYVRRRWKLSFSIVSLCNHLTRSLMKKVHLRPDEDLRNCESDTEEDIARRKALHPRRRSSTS
T13 sequence (P49840 whole entry): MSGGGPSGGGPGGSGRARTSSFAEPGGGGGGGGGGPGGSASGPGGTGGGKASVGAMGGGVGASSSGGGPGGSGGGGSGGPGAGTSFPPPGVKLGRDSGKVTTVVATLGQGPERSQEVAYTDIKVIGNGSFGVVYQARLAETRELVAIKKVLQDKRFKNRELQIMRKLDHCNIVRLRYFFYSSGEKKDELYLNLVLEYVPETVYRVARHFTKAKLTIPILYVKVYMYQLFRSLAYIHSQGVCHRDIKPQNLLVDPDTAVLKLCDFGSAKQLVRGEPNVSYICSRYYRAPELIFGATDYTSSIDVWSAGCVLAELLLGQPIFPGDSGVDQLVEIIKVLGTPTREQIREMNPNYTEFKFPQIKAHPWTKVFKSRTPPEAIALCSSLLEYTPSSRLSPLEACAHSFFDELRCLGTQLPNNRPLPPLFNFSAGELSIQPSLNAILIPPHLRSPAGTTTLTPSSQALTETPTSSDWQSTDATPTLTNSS
T1 sequence (O15146 24-869): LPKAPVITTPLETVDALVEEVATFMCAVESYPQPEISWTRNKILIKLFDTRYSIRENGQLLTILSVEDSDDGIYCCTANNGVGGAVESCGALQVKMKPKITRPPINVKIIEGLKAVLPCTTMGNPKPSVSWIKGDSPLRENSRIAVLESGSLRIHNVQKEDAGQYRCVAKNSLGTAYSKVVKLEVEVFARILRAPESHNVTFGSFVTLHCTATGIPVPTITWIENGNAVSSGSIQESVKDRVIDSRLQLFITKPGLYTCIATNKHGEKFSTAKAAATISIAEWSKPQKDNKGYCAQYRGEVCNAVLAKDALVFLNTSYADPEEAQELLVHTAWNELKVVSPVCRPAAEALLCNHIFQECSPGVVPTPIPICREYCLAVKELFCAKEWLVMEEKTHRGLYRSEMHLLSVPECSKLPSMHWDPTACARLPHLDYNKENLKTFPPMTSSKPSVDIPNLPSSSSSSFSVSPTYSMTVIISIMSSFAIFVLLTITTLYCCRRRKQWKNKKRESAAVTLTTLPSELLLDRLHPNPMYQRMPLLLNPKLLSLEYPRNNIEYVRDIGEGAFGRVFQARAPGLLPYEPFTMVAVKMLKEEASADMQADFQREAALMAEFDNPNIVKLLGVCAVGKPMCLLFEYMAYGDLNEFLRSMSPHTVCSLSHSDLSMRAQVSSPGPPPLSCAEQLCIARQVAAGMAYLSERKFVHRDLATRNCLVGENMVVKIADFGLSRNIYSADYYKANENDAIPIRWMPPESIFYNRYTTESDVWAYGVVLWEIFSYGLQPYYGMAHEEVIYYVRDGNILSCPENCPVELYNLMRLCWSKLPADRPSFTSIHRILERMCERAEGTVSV
T26 sequence (Q8N752 whole entry): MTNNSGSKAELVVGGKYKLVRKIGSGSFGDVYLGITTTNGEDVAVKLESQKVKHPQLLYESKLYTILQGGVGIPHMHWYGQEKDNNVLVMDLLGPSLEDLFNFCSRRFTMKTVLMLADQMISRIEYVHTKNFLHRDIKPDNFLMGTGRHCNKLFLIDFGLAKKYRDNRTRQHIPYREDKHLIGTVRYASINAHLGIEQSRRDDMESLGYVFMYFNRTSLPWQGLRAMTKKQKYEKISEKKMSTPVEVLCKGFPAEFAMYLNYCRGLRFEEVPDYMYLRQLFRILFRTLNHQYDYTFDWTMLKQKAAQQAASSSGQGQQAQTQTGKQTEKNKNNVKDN
T4 sequence (O75716 whole entry): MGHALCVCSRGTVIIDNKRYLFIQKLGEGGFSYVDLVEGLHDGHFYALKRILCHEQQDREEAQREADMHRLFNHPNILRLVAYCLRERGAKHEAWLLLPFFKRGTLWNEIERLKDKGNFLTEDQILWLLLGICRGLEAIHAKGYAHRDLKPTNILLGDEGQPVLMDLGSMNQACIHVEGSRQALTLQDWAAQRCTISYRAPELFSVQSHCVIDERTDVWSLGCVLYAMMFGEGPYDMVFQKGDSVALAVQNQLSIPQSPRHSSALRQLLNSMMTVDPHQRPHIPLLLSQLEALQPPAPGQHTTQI
T11 sequence (P42680 whole entry): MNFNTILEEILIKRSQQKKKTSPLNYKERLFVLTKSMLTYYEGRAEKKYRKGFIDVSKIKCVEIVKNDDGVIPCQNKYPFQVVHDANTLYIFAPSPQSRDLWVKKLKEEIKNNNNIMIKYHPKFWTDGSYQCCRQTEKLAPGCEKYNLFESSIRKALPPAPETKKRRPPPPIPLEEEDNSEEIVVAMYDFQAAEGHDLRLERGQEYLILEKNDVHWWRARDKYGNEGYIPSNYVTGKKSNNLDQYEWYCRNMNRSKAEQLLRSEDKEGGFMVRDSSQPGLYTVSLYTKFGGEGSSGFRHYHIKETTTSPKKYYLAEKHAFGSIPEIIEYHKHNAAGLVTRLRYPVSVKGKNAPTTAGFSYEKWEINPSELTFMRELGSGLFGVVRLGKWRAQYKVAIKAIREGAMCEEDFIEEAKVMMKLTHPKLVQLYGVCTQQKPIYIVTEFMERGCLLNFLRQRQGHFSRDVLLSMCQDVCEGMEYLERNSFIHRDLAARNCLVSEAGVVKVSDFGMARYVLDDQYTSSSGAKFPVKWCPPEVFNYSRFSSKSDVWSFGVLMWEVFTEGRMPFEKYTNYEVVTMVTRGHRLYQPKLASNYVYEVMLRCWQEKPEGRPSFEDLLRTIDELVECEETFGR
T5 sequence (O95382 whole entry): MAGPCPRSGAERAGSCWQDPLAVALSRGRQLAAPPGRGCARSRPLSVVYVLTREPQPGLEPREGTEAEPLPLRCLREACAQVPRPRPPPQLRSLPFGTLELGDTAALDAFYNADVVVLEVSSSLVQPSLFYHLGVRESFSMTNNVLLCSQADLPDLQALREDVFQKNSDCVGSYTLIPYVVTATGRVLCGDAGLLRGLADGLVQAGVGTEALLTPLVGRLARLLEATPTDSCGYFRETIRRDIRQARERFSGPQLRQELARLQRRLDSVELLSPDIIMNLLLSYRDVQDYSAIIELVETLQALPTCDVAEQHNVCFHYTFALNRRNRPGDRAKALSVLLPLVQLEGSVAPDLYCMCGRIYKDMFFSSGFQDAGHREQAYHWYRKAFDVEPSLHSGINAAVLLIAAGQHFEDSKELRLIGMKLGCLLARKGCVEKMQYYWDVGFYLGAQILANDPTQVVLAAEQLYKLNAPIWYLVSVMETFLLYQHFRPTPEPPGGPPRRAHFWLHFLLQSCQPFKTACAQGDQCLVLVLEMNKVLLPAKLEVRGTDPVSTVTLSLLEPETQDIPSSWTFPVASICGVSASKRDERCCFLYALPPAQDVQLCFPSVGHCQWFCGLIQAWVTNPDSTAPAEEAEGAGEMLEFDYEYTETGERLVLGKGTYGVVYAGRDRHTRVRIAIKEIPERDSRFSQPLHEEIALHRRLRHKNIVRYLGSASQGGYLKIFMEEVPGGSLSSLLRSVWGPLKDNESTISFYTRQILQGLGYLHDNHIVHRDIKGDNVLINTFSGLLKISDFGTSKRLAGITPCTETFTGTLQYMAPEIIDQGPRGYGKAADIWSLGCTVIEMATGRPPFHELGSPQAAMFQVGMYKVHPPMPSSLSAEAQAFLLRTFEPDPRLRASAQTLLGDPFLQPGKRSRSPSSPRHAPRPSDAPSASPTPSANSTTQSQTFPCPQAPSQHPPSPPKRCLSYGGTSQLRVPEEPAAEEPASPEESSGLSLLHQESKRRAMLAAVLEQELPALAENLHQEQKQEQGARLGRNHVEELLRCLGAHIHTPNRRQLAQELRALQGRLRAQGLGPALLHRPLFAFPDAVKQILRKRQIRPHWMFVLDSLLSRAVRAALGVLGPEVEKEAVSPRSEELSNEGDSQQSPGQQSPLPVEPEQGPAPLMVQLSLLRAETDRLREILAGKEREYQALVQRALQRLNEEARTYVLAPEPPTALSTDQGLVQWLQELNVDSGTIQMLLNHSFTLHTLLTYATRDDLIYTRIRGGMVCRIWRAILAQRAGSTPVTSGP

`O=C(O)c1cc(C(F)(F)F)ccc1NCCc1c[nH]c2cc(Br)ccc12` [Compound 5, 2-((2-(6-Bromo-1H-indol-3-yl)ethyl)amino)−5-(trifluoromethyl)benzoic Acid] showed an activity at 10 µM [1] of 104.4 ± 1%, an activity at 10 µM [2] of 80.9 ± 2.2% and an activity at 10 µM [3] of 92.1 ± 0.7%. For the same compound, the activity at 10 µM [4] was 80.4 ± 1.1%, the activity at 10 µM [5] was 108 ± 1.4% and the activity at 10 µM [6] was 97.8 ± 0.2%. For the same compound, the activity at 10 µM [7] was 101.3 ± 0.5%, the activity at 10 µM [8] was 63.4 ± 6.7% and the activity at 10 µM [9] was 90.7 ± 1.5%. The activity at 10 µM [10] was 95.2 ± 1.6%, the activity at 10 µM [11] was 101 ± 1.6% and the activity at 10 µM [12] was 94.7 ± 2.8%. It also gave an activity at 10 µM [13] of 67.6 ± 0.3%, an activity at 10 µM [14] of 91.7 ± 0.5% and an activity at 10 µM [15] of 94.3 ± 0.5%. The activity at 10 µM [16] was 127 ± 0.1%, the activity at 10 µM [17] was 95.6 ± 0.3% and the activity at 10 µM [18] was 115.9 ± 0.9%. The activity at 10 µM [19] was 83.1 ± 2.8%, the activity at 10 µM [20] was 140 ± 2.3% and the activity at 10 µM [21] was 91 ± 0.5%. It also gave an activity at 10 µM [22] of 103 ± 3.1%, an activity at 10 µM [23] of 59.1 ± 0.7% and an activity at 10 µM [24] of 95.4 ± 2%. It also gave an activity at 10 µM [25] of 86.9 ± 0.4%, an activity at 10 µM [26] of 90.8 ± 1.1% and an activity at 10 µM [27] of 69.6 ± 1.3%. For the same compound, the activity at 10 µM [28] was 86.3 ± 2.3%, the activity at 10 µM [29] was 244 ± 9% and the activity at 10 µM [30] was 96.9 ± 2.5%. It also gave an activity at 10 µM [31] of 56 ± 0.2%, an activity at 10 µM [32] of 78.8 ± 0.4% and an activity at 10 µM [33] of 51.9 ± 1.4%. The activity at 10 µM [34] was 100.9 ± 0.2%, the activity at 10 µM [35] was 69.7 ± 3% and the “inhibition of any kinase” value [36] was at most 80%. The “share of the 371 kinases tested with >50% inhibition” value [36] was 4%, the “% Activity” value ([36]; LYN B) was 93.2 ± 0.3% and the “% Activity” value ([36]; PKCB2) was 100.1 ± 1.4%. For the same compound, the “% Activity” value ([36]; PKG1B) was 78.0 ± 0.4%.
